One may read the IC50 as the concentration that gives 50% inhibition.

Like-named read-outs stand apart in the source and are kept apart here.

The values below come from US20260365670A1, “EGFR INHIBITORS AND USES THEREOF” (DIZAL (JIANGSU) PHARMACEUTICAL CO., LTD., priority 2022, published 2026).

For one assay, the target named is T1, EGFR wild type (Homo sapiens, UniProt P00533).
T1 construct: purchased Carna Bio
Kind of assay: Inhibition of EGFR wild type biochemical enzymatic activity (HTRF). The conditions noted are these: EGFR WT, 1 mM ATP, 1 h, room temperature, read-out: IC50 (nM) @WT. The method, boiled down: (§1)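 Phosphorylation of TK Substrate-biotin (1 μM) was measured at 1 mM ATP over a 1 h room-temperature incubation with serially varied compound. Detection was by HTRF ratio and analysis by 4PL fit to IC50.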
Background: Time-resolved FRET reads energy transfer from a long-lived donor to a nearby acceptor.

The next assay concerns the target T2, EGFR L858R (Homo sapiens, UniProt P00533, L858R).
T2 construct: purchased Carna Bio
The assay is described as follows: Inhibition of EGFR L858R biochemical enzymatic activity (HTRF). The conditions noted are these: 1 mM ATP, 1 h, room temperature, read-out: IC50 (nM) @L858R. The method, boiled down:
as §1

Another assay deals with T3, EGFR L858R/T790M (Homo sapiens, UniProt P00533, L858R/T790M).
T3 construct: purchased Carna Bio
The assay is described as follows: Inhibition of EGFR L858R/T790M biochemical enzymatic activity (HTRF). The settings on record: EGFR L858R-T790M, 1 mM ATP, 1 h, room temperature, read-out: IC50 (nM) @L858R-T790M. The method, boiled down: as §1

The target in the next assay is T4, EGFR Exon19Del (Homo sapiens, UniProt P00533, DEL746-750).
T4 construct: purchased Carna Bio
Kind of assay: Inhibition of EGFR Exon19Del biochemical enzymatic activity (HTRF). The settings on record: EGFR Del19, 1 mM ATP, 1 h, room temperature, read-out: IC50 @Del19. The method, boiled down: as §1

Another assay addresses T5, EGFR Exon19Del/T790M (Homo sapiens, UniProt P00533, DEL746-750/T790M).
T5 construct: purchased Carna Bio
The assay is described as follows: Inhibition of EGFR Exon19Del/T790M biochemical enzymatic activity (HTRF). The conditions noted are these: EGFR Del19-T790M, 1 mM ATP, 1 h, room temperature, read-out: IC50 (nM) @Del19-T790M. An outline of the steps: as §1

The target in the next assay is T6, EGFR[T790M/C797S/L858R] (Homo sapiens, UniProt P00533, C797S/L858R/T790M).
T6 construct: purchased Carna Bio
The assay is described as follows: Inhibition of EGFR[T790M/C797S/L858R] biochemical enzymatic activity (HTRF). The conditions noted are these: EGFR T790M-C797S-L858R, 1 mM ATP, 1 h, room temperature, read-out: IC50 (nM) @T790M- C797S - L858R. An outline of the steps:
as §1

Assay [1] deals with T7, EGFR[T790M/C797S/d746-750] (Homo sapiens, UniProt P00533, C797S/DEL746-750/T790M).
T7 construct: purchased Carna Bio
The assay is described as follows: Inhibition of EGFR[T790M/C797S/d746-750] biochemical enzymatic activity (HTRF). The conditions noted are these: EGFR T790M-C797S-Del19, 1 mM ATP, 1 h, room temperature, read-out: IC50 (nM) @T790M - C797S - Del19. An outline of the steps:
as §1

The target in the next assay is T8, EGFR (d746-750 C797S) (Homo sapiens, UniProt P00533, C797S/DEL746-750).
T8 construct: purchased signalchem
The assay is described as follows: Inhibition of EGFR (d746-750 C797S) biochemical enzymatic activity (HTRF). The conditions noted are these: EGFR Del19-C797S, 1 mM ATP, 1 h, room temperature, read-out: IC50 (nM) @Del19-C797S. An outline of the steps: as §1

In another assay the target is T9, EGFR (C797S L858R) (Homo sapiens, UniProt P00533, C797S/L858R).
T9 construct: purchased signalchem
The assay is described as follows: Inhibition of EGFR (C797S L858R) biochemical enzymatic activity (HTRF). The settings on record: EGFR L858-C797S, 1 mM ATP, 1 h, room temperature, read-out: IC50 (nM) @L858-C797S. The method, boiled down:
as §1

The subject of assay [2] is Ba/F3 cells expressing EGFR mutations. The assay is described as follows: Cell proliferation assay, Ba/F3 cells expressing EGFR mutations (CellTiter-Glo, 72 hours). In kind it is cell-based. The conditions noted are these: Mus musculus, BaF3, 72 h, CellTiter-Glo. An outline of the steps:
(§2)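 Luminescent viable-cell counts were taken on a day 0 plate at dosing and again at endpoint. Proliferation was calculated as (sample − G0)/(DMSO − G0). Seeding was 5000 Ba/F3 or 500 PC-9 cells per well in RPMI1640, followed by overnight attachment and serial compound dilutions. The GI50 was fitted.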
On the technique in general: ATP-based viability assays read luminescence as a measure of living cells.

A further assay relates to PC-9. The assay is described as follows: Cell proliferation assay, PC-9 cells (CellTiter-Glo, 72 hours). In kind it is cell-based. The settings on record: Homo sapiens, PC-9, 72 h, PC9 cells, CellTiter-Glo, read-out: PC9 GI50. An outline of the steps: as §2
Another assay deals with A-431. Kind of assay: Cell proliferation GI50, A-431 cells (Table 6). It counts as cell-based. The settings on record: Homo sapiens, A-431, A-431 cells.
The mark [3] stands for this setting: BaF3 cells, EGFR DEL19-C797S, read-out: DEL19-C797S/BaF3 GI50.
The mark [4] stands for this setting: BaF3 cells, EGFR DEL19-T790-C797S, read-out: DEL19-T790-C797S/BaF3 GI50.
Where [5] appears, read: BaF3 cells, EGFR L858R, read-out: L858R/BaF3 GI50.
Setting [6] is: BaF3 cells, EGFR L858R-C797S, read-out: L858R-C797S/BaF3 GI50.
The mark [7] stands for this setting: BaF3 cells, EGFR L858R-T790-C797S, read-out: L858R-T790-C797S/BaF3 GI50.
[8] abbreviates: BaF3 cells, EGFR L858R-T790M, read-out: L858R-T790M/BaF3 GI50.
[9] abbreviates: EGFR DEL19-T790M, read-out: DEL19-T790M GI50.

T3 sequence (P00533 25-1210 T790M/L858R): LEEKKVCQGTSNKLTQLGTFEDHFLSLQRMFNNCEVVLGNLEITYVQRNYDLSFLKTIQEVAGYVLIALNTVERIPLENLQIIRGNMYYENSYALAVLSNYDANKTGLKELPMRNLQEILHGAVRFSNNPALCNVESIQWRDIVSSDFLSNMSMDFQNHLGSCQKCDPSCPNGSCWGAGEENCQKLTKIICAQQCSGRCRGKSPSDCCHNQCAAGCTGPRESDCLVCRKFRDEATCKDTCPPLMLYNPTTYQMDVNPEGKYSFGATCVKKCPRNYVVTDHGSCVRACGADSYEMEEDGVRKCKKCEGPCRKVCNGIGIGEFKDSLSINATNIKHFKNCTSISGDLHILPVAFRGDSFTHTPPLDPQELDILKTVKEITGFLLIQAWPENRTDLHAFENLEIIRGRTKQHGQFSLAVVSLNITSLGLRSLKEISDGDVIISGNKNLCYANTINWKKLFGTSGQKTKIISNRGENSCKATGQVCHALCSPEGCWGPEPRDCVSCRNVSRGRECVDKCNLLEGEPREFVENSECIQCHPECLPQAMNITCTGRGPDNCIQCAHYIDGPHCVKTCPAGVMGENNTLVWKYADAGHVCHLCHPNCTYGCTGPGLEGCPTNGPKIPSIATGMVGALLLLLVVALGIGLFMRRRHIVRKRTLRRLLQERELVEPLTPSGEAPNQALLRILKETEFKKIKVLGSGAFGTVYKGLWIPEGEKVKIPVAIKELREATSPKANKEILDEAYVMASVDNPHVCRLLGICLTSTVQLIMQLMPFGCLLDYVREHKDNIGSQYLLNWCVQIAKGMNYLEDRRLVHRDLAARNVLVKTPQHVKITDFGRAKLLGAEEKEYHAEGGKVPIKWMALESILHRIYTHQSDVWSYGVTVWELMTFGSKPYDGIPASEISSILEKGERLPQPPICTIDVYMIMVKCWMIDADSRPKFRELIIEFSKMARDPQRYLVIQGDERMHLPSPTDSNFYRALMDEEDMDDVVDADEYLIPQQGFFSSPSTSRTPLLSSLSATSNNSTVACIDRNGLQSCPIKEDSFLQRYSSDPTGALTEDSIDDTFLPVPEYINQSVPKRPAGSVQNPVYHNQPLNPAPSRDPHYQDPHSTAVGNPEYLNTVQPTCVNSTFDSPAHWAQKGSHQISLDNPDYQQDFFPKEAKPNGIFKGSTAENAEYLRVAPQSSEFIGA
T9 sequence (P00533 25-1210 C797S/L858R): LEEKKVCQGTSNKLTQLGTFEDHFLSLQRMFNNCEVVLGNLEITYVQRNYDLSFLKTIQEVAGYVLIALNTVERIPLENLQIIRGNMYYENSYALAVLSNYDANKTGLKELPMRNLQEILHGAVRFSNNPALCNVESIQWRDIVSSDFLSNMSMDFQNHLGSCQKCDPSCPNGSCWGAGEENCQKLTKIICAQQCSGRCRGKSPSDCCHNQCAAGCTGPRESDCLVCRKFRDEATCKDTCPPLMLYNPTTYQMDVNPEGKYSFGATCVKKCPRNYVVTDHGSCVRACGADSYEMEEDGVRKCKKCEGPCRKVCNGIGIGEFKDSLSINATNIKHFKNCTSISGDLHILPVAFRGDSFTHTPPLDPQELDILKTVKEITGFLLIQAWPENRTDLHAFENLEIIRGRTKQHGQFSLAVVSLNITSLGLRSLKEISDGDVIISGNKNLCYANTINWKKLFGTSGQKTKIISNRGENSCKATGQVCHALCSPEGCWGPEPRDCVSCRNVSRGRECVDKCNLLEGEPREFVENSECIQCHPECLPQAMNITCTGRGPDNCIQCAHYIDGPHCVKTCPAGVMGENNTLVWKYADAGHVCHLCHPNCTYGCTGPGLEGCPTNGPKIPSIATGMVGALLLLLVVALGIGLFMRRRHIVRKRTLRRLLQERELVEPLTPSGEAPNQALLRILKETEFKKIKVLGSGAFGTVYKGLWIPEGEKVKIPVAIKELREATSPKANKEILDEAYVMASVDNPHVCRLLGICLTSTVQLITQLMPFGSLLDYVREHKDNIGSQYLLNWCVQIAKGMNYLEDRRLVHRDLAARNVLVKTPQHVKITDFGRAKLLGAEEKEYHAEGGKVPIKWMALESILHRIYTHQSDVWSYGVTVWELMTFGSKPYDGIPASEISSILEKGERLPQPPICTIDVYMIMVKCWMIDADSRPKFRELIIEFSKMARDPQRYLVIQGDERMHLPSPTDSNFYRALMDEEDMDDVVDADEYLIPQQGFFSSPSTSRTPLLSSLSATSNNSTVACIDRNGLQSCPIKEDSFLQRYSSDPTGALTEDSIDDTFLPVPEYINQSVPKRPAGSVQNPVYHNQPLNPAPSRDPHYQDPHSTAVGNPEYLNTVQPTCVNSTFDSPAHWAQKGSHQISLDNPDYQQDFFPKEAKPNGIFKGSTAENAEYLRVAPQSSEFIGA
T5 sequence (P00533 with tags, fused parts or gaps DEL746-750/T790M limits assumed): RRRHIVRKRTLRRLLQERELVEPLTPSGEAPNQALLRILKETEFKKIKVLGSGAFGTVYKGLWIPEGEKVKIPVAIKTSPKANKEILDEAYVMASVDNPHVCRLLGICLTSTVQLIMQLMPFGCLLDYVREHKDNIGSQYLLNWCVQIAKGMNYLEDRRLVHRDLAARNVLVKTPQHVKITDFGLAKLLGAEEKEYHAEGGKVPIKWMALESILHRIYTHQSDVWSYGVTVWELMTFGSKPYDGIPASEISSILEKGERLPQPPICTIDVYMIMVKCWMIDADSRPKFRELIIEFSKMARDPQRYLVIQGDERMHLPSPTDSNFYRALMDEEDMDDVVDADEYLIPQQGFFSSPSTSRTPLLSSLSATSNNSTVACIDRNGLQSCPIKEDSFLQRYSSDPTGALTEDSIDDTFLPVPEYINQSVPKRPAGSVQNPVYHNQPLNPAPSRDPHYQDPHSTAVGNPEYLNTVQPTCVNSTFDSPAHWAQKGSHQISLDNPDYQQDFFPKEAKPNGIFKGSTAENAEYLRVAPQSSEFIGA
T8 sequence (P00533 with tags, fused parts or gaps DEL746-750/C797S limits assumed): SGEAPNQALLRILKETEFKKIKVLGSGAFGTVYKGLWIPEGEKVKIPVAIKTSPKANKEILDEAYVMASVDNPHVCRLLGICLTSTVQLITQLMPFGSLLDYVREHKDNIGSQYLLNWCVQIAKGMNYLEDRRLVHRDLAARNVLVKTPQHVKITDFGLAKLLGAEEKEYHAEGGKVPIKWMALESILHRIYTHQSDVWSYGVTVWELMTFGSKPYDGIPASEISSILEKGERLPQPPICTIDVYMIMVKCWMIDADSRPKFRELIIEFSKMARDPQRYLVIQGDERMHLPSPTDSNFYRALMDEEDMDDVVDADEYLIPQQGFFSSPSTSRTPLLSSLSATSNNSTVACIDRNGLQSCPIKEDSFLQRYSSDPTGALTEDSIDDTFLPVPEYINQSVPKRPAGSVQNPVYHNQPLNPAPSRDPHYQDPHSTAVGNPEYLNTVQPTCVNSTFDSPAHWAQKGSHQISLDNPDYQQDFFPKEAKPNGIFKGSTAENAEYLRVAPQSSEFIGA
T4 sequence (P00533 with tags, fused parts or gaps DEL746-750 limits assumed): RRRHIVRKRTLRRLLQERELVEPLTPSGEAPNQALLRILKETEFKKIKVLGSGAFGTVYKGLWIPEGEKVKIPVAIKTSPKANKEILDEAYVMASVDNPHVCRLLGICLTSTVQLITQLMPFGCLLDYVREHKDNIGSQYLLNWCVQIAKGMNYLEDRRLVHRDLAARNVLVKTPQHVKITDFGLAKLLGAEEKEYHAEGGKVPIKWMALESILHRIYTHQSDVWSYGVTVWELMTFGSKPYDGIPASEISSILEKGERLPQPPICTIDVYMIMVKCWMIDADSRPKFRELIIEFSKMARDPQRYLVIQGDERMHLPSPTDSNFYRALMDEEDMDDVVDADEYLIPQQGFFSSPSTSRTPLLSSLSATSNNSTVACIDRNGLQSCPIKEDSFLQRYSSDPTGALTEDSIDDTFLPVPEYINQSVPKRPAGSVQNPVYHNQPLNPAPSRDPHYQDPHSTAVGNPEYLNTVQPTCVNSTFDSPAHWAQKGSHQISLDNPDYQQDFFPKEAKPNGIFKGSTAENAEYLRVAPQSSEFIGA
T7 sequence (P00533 with tags, fused parts or gaps DEL746-750/T790M/C797S limits assumed): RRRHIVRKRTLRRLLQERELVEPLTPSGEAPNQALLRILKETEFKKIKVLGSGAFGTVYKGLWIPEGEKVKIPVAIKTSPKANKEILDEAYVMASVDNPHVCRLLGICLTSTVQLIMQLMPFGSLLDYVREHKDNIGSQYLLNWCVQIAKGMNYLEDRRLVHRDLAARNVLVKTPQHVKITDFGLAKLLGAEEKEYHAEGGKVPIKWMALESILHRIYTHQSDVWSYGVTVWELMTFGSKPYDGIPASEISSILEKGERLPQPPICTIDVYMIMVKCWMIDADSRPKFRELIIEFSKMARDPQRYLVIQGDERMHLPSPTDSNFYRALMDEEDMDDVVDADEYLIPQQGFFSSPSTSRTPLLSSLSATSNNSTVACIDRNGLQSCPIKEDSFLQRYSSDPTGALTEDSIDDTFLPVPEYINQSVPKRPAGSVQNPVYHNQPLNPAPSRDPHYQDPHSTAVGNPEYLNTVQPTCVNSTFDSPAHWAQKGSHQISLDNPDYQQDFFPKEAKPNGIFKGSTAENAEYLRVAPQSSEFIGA

`C[C@@H]1CCCOc2c(cnn2C)-c2cc(cn(C)c2=O)C(=O)Nc2nc3ccc(N4CCN(C(=O)OC(C)(C)C)CC4)cc3n2C1` [Example A54]: the IC50 on EGFR wild type was greater than 5000 nM; at EGFR L858R, 3040 nM; on EGFR L858R/T790M, 213 nM; at EGFR Exon19Del, 118 nM; at EGFR Exon19Del/T790M, 31 nM; on EGFR[T790M/C797S/L858R], 10 nM. The IC50 in assay [1] was determined as 31 nM; at EGFR (d746-750 C797S) it was 41 nM; on EGFR (C797S L858R) it was 887 nM. Besides, the GI50 is 32 nM in assay [2] (setting [3]); 104 nM in [2] (setting [4]); 192 nM in assay [2] (setting [5]); 188 nM in [2] (setting [6]); 228 nM in assay [2] (setting [7]); 288 nM in assay [2] (setting [8]). Besides, the GI50 came to 153 nM in [2] (setting [9]), 245 nM in the assay with PC-9 and 1910 nM in the assay on A-431.
In the case of `C[C@@H]1CCCOc2c(cnn2C)-c2cc(cn(C)c2=O)C(=O)Nc2nc3ccc(N4CCNCC4)cc3n2C1` [Example A55], the concentration for half-maximal inhibition (IC50) came out at 103 nM at EGFR wild type; 16 nM at EGFR L858R; 8.4 nM at EGFR L858R/T790M; 3.7 nM at EGFR Exon19Del; 3.7 nM on EGFR Exon19Del/T790M; 7.2 nM on EGFR[T790M/C797S/L858R]. Also, the IC50 in assay [1] came to 4.4 nM; on EGFR (d746-750 C797S) it was 1.8 nM; at EGFR (C797S L858R), 8.4 nM. Also, the GI50 in assay [2] (setting [3]) was determined as 4.6 nM; in assay [2] (setting [4]), 25 nM; in assay [2] (setting [5]) it was 26 nM; in [2] (setting [6]), 31 nM; in [2] (setting [7]) it was 29 nM; in assay [2] (setting [8]) it was 52 nM. In addition, the GI50 is 36 nM in assay [2] (setting [9]), 51 nM with PC-9 and 1280 nM in the assay with A-431.
In the case of `C[C@@H]1CCCOc2c(cnn2C)-c2cc(cn(C)c2=O)C(=O)Nc2nc3ccc(N4CC5(CCN(C)CC5(F)F)C4)cc3n2C1` [Example A56], the IC50 was 501 nM at EGFR wild type; 35 nM on EGFR L858R; 32 nM on EGFR L858R/T790M; 9.1 nM on EGFR Exon19Del; 17 nM at EGFR Exon19Del/T790M; 19 nM at EGFR[T790M/C797S/L858R]. Besides, the IC50 in assay [1] is 16 nM; on EGFR (d746-750 C797S), 5.5 nM; at EGFR (C797S L858R), 22 nM. In addition, the GI50 in assay [2] (setting [3]) is 3.4 nM; in assay [2] (setting [4]), 11 nM; in assay [2] (setting [5]), 12 nM; in assay [2] (setting [6]), 12 nM; in assay [2] (setting [7]), 10 nM; in assay [2] (setting [8]) it was 26 nM. For the same compound, the GI50 in [2] (setting [9]) worked out at 17 nM; with PC-9 it was 52 nM; with A-431 it was 436 nM.
In the case of `C[C@@H]1CCCNc2c(cnn2C)-c2cc(cn(C)c2=O)C(=O)Nc2nc3ccc(N4CCN(C)CC4)cc3n2C1` [Example A57], the IC50 at EGFR wild type was greater than 5000 nM; at EGFR L858R it was greater than 5000 nM; at EGFR L858R/T790M it was 4530 nM; at EGFR Exon19Del, 189 nM; at EGFR Exon19Del/T790M, 112 nM; at EGFR[T790M/C797S/L858R], greater than 5000 nM. Moreover, the IC50 in assay [1] worked out at 65 nM; on EGFR (d746-750 C797S) it was 175 nM; at EGFR (C797S L858R), 2650 nM. The GI50 in assay [2] (setting [3]) was determined as 64 nM; in assay [2] (setting [4]), 534 nM; in [2] (setting [5]), 790 nM; in assay [2] (setting [6]) it was 474 nM; in assay [2] (setting [7]), 716 nM; in assay [2] (setting [8]), 356 nM. Further, the GI50 in assay [2] (setting [9]) was found to be 612 nM; in the assay on PC-9, 194 nM; in the assay on A-431, 8300 nM.
For the compound `C[C@@H]1CCCOc2c(cnn2C)-c2cc(cn(C)c2=O)C(=O)Nc2nc3ccc(N4CC(F)(CN(C)C)C4)cc3n2C1` [Example A58], the IC50 on EGFR wild type worked out at 220 nM; on EGFR L858R, 26 nM; at EGFR L858R/T790M it was 34 nM; on EGFR Exon19Del it was 9.2 nM; on EGFR Exon19Del/T790M, 16 nM; at EGFR[T790M/C797S/L858R] it was 22 nM. The IC50 in assay [1] came to 15 nM; at EGFR (d746-750 C797S), 4.9 nM; on EGFR (C797S L858R) it was 19 nM. In addition, the GI50 in assay [2] (setting [3]) amounted to 2 nM; in assay [2] (setting [4]), 28 nM; in assay [2] (setting [5]), 29 nM; in assay [2] (setting [6]), 20 nM; in assay [2] (setting [7]), 37 nM; in assay [2] (setting [8]), 20 nM. The GI50 in assay [2] (setting [9]) came out at 20 nM; with PC-9 it was 325 nM; in the assay on A-431, 1750 nM.
Turning to `Cn1ncc2c1OCCN1CC3CCC(C3)(C1)n1c(nc3cc(Br)ccc31)NC(=O)c1cc-2c(=O)n(C)c1` (stereo not drawn) [Example A59, 6-Bromo-15,21-dimethyl-23-oxa-2,9,11,15,20,21,26-heptaazaheptacyclo[24.4.1.1^{1,28}.1^{13,17}.0^{2,10}.0^{3,8}.0^{18,22}]tritriaconta-3,5,7,9,13,17(33),18(22),19-octaene-12,16-dione], the IC50 on EGFR wild type is greater than 5000 nM; on EGFR L858R, greater than 5000 nM; on EGFR L858R/T790M, 2610 nM; on EGFR Exon19Del, 202 nM; at EGFR Exon19Del/T790M, 11 nM; at EGFR[T790M/C797S/L858R], 807 nM. For the same compound, the IC50 in assay [1] is 11 nM; at EGFR (d746-750 C797S), 140 nM; on EGFR (C797S L858R), 4720 nM. For the same compound, the GI50 in [2] (setting [3]) turned out to be 32 nM; in assay [2] (setting [4]), 75 nM; in [2] (setting [5]) it was 201 nM; in [2] (setting [6]), 222 nM; in assay [2] (setting [7]) it was 160 nM; in [2] (setting [8]), 964 nM. Besides, the GI50 in assay [2] (setting [9]) is 140 nM; in the assay on PC-9, 295 nM; with A-431, 1140 nM.
